{
  "source": "patent US20190241535A1",
  "about": "“3-SUBSTITUTED CARBONYL-NAPHTHO[2,3-B]FURANE DERIVATIVE OR PHARMACEUTICALLY ACCEPTABLE SALT THEREOF” (Boston Biomedical, Inc., priority 2014, published 2019)",
  "assay": "Test 5: concentration of the test compounds in tumor",
  "format": "in vivo",
  "settings": "mouse, po, 25 mg/kg, 25 mg/kg po",
  "experimental": "Administration method: The test compound scaled to a given weight was suspended in 0.5% methylcellulose to prepare an administration solution. A mouse was weighed, and the administration solution was orally administered to the mouse depending on its weight.\nThe picked tumor was put into a tube, and 1 mL of MeOH containing an internal standard was added to the tube. The internal standard used herein was bezafibrate, the concentration of which was 200 nM. The mixture was homogenized with an electric homogenizer to prepare a tumor extract. And, a blank tumor extract was prepared with a tumor derived from an un-treated animal in the same manner. The 100 μg/mL standard solution was diluted with MeOH to prepare a sample for calibration curve which has the desired concentration. To 50 μL of the sample for calibration curve was added 50 μL of the blank tumor extract to prepare a sample for tumor calibration curve. To 50 μL of the tumor extract was added 50 μL of MeOH to prepare a sample for analyzing tumor. Each 5 μL of the samples was analyzed with an LC-MS. The calibration curve was prepared based on the peak ratio of MS peak area of the test sample per that of the internal standard, and the concentration of the sample for tumor calibration curve. The concentration/weight of the test compound in each sample was calculated based on the peak ratio of each sample, and the calibration curve. Then, the obtained weight was divided by the weight in tumor to calculate the concentration of the test compound in tumor.",
  "key": {"[1]": {"settings": "animal 1, read-out: Concentration in tumor, animal 1"}, "[2]": {"settings": "animal 2, read-out: Concentration in tumor, animal 2"}},
  "note": "Read-outs that look alike come from different tables or passages of the source.",
  "data": [
    {"smiles": "CN1CCN(C(=O)c2c(C(F)(F)F)oc3c2C(=O)c2ccccc2C3=O)CC1", "note": "[Example 8, 3-(4-Methylpiperazine-1-carbonyl)-2-(trifluoromethyl)naphtho[2,3-b]furan-4,9-dione]", "values": [
      {"measurement": "concentration at 2 hr", "setting": "[1]", "value": 498, "unit": "ng/mL"},
      {"measurement": "concentration at 2 hr", "setting": "[2]", "value": 260, "unit": "ng/mL"},
      {"measurement": "concentration at 2 hr", "setting": "animal 3, read-out: Concentration in tumor, animal 3", "value": 47, "unit": "ng/mL"},
      {"measurement": "concentration at 2 hr", "setting": "mean of 3, read-out: Concentration in tumor, mean", "value": 268, "unit": "ng/mL"},
      {"measurement": "concentration at 6 hr", "setting": "[1]", "value": 329, "unit": "ng/mL"},
      {"measurement": "concentration at 6 hr", "setting": "[2]", "value": 157, "unit": "ng/mL"}
    ]}
  ]
}
